Laboratory results as given in patent US12428369B2, “Crystal form of aromatic vinyl derivatives, and preparation method therefor and use thereof” (GUANGZHOU MAXINOVEL PHARMACEUTICALS CO., LTD., priority 2020, dated 2025).
Converted amounts (≈) assume the structure as drawn.

Experiments:
Type in all cases: physicochemical
[1] = Equilibrium solubility and dissolution rate in water, SGF, FaSSIF, FeSSIF; conditions: 37° C.
Experimental: To further study whether the equilibrium solubility and dissolution rate of crystal forms A, B and C are different in pure water and physiological related media in vivo, the equilibrium solubility and dissolution rate of […] crystal forms in water, simulated gastric fluid (SGF), fasted-state simulated intestinal fluid (FaSSIF) and fed state simulated intestinal fluid (FeSSIF) were tested respectively.

[2] = Solid-state stability: appearance and crystal form (XRPD)
Experimental: (§1) The samples of crystal forms A, B, and C were weighed and added to a 20 mL colorless transparent glass bottle, respectively, and the sample bottles were respectively placed under the corresponding influencing factors and acceleration conditions (the sample bottles under humidity conditions were sealed with tin foil and placed with holes, and the other samples were covered tightly and placed), taken out after being placed for 1 week and 2 weeks respectively, and the sample content and related substances under various conditions were detected by HPLC; according to the same method as above, samples were respectively weighed and placed under a corresponding influencing factor and accelerated condition, and were taken out after being placed for 2 weeks for observing the appearance and XRPD characterization of each sample, and the physical stability of each crystal form was examined, and the test methods are detailed in table 14 and table 15; at the same time, 2 samples of the crystal forms A, B, and C of the compound as shown in formula I were respectively weighed accurately into 20 mL colorless transparent glass bottles and covered tightly, placed in a −20° C. refrigerator, and taken out as a standard for HPLC analysis at 2 weeks, and the test results are detailed in table 16 and table 17.

[3] = Solid-state stability: content and related substances by HPLC
Experimental: as §1

[4] = Crystal form conversion on heating; conditions: heated to 200° C.
Experimental: 100 mg of the compound as shown in formula I sample was weighed and added to a bottle, then 20 times the volume of methanol was added to the bottle, and the mixture was magnetic stirred and slurried for 14 days at room temperature.
100 mg of the compound as shown in formula I sample was weighed and added to a glass bottle, and 100 times the volume of ethyl acetate (EA) and 20 times the volume of methanol (MeOH) were added to the bottle, and the sample was placed on a magnetic heating stirrer. The mixture was magnetic stirred to fully dissolve at a water bath of 50° C., filtered and the filtrate was slowly cooled to room temperature at a rate of 6° C./h, overnight, filtered under reduced pressure, and the solid was dried at 70° C. for 4 hours.
100 mg of the compound as shown in formula I sample was weighed and added to a bottle, then 30 times the volume of acetonitrile (ACN) (sample mass (g)×volume multiples) was added to the bottle, and the mixture was magnetic stirred and slurried for 2 days at room temperature, filtered under reduced pressure, and the solid was collected, and dried at 40° C. for 4 hours. The solid after drying was characterized, and the crystal form was defined as a crystal form VIII, and the XRPD pattern of the crystal form VIII is as shown in FIG. 20. […]

[5] = Dynamic vapor sorption (DVS) analysis; conditions: 25° C.
Experimental: The hygroscopic characteristics of the sample were tested when the humidity changed from 0% RH to 95% RH, and the dehumidifying characteristics of the sample were tested when the humidity changed from 95% RH to 0% RH. The humidity change in each step size was 5% RH, the equilibrium standard was that the weight change rate within 10 min was less than 0.01%/min, and the longest equilibrium time was 2 hours.
The hygroscopic characteristics of the sample were tested when the humidity changed from 0% RH to 95% RH, and the dehumidifying characteristics of the sample were tested when the humidity changed from 95% RH to 0% RH. The humidity change in each step size was 5% RH, the equilibrium standard was that the weight change rate within 5 min was less than 0.01%/min, and the longest equilibrium time was 2 hours.

[6] = Acceleration (40° C./75% RH), 2 weeks
[7] = High humidity (92.5% RH), 2 weeks
[8] = High temperature (60° C.), 2 weeks
[9] = Illumination (4500 Lux), 2 weeks
[10] = Acceleration (40° C./75% RH), 1 week
[11] = High humidity (92.5% RH), 1 week
[12] = High temperature (60° C.), 1 week
[13] = illumination (4500 LuX), 1 week
[14] = illumination (4500 LuX), 2 weeks

Cc1c(/C=C/c2cc(CN[C@@](C)(CO)C(=O)O)ccc2C(F)(F)F)cccc1-c1ccccc1 [Crystal form C]
Solubility ([1]; FaSSIF (rows r12-r14), 0.5 hours, listed as C): 9.1 µg/mL (≈ 19.4 µM)
Solubility ([1]; FaSSIF (rows r12-r14), 2 hours, listed as C): 2.2 µg/mL (≈ 4.69 µM)
Solubility ([1]; FaSSIF (rows r12-r14), 24 hours, listed as C): 4.5 µg/mL (≈ 9.58 µM)
Solubility ([1]; FaSSIF as printed (second set, rows r15-r17), 0.5 hours, listed as C): 181.7 µg/mL (≈ 387 µM)
Solubility ([1]; FaSSIF as printed (second set, rows r15-r17), 2 hours, listed as C): 174.3 µg/mL (≈ 371 µM)
Solubility ([1]; FaSSIF as printed (second set, rows r15-r17), 24 hours, listed as C): 166.6 µg/mL (≈ 355 µM)
Solubility ([1]; SGF, 0.5 hours): 0.3 µg/mL (≈ 0.639 µM)
Solubility ([1]; SGF, 2 hours): 0.2 µg/mL (≈ 0.426 µM)
Solubility ([1]; SGF, 24 hours): 0.5 µg/mL (≈ 1.06 µM)
Solubility ([1]; Water, 0.5 hours): 1.7 µg/mL (≈ 3.62 µM)
Solubility ([1]; Water, 2 hours): 6.5 µg/mL (≈ 13.8 µM)
Solubility ([1]; Water, 24 hours): 1.8 µg/mL (≈ 3.83 µM)
Appearance [2, 6]: Off-white
Crystal form (XRPD) after storage [2, 6]: Crystal form C
Appearance ([2]; Control, −20° C., 2 weeks): Off-white
Crystal form (XRPD) after storage ([2]; Control, −20° C., 2 weeks, listed as Crystal form C-Control): Crystal form C
Appearance [2, 7]: Off-white
Crystal form (XRPD) after storage [2, 7]: Crystal form C
Appearance [2, 8]: Off-white
Crystal form (XRPD) after storage [2, 8]: Crystal form C
Appearance [2, 9]: Off-white
Crystal form (XRPD) after storage [2, 9]: Crystal form C
physical stability ([2]; four storage conditions, 2 weeks (conclusion)): good
Appearance ([2]; high temperature, high humidity, illumination and acceleration, 2 weeks (conclusion)): off-white
Content [3, 10]: 100.06%
Total related substances [3, 10]: 0.00%
Content [3, 6]: 99.89%
Total related substances [3, 6]: 0.00%
Content ([3]; Control, −20° C., 2 weeks): 100.00%
Total related substances ([3]; Control, −20° C., 2 weeks): 0.00%
Content [3, 11]: 101.55%
Total related substances [3, 11]: 0.00%
Content [3, 7]: 100.59%
Total related substances [3, 7]: 0.00%
Content [3, 12]: 98.41%
Total related substances [3, 12]: 0.00%
Content [3, 8]: 100.18%
Total related substances [3, 8]: 0.00%
Content [3, 13]: 102.18%
Total related substances [3, 13]: 0.52%
Content [3, 14]: 98.64%
Total related substances [3, 14]: 1.56%
crystal form after heating [4]: converted into the crystal form A
hygroscopicity ([5]; assessment in words): hygroscopic
weight gain ([5]; from 0% RH to 95% RH): 4.767%
